pIC50: −log10 of the molar value.

One test deals with T1, Human KLKB1 protein (Homo sapiens, UniProt P03952).
T1 construct: purchased Enzyme Research Labs
Description: KLKB1 kallikrein protease inhibition assay (chromogenic substrate S-2302). The settings on record: 3 nM KLKB1, 250 μM S-2302, 10 min pre-incubation, RT, read at 405 nm. Type of test: biochemical. On the procedure:
The KLKB1 kallikrein activity reported herein (e.g., Table A) was obtained as follows. Human KLKB1 protein was obtained from Enzyme Research Labs. The chromogenic substrate S-2302 was obtained from DiaPharma. KLKB1 was assayed in buffer containing 0.05 M Tris (pH 7.4), 0.01 M NaCl and 0.2% w/v PEG-8000. The final concentration of enzyme used was 3 nM KLKB1. The final concentration of substrate used was 250 μM S-2302 for KLKB1. All assays were performed in 96-well microtiter plates at room temperature (RT). […] The plate was read at 10 minutes after substrate addition. The IC50 was calculated by plotting the percent (%) inhibition against compound concentration and fitting the data to a constrained four parameter sigmoidal curve, as known in the art.

The next test deals with T2, Human thrombin (Homo sapiens, UniProt P00734).
T2 construct: Thrombin (fIIa, the active form of prothrombin) is another serine protease; purchased Haematologic Technologies Inc
Kind of test: thrombin protease inhibition assay (chromogenic substrate S-2238). Format: biochemical. The settings on record: 3 nM thrombin, 125 μM S-2238, 10 min pre-incubation, RT, read at 405 nm. The method, then:
The thrombin activity reported herein (e.g., Table A) was obtained as follows. […] Thrombin was assayed in buffer containing 0.05 M Tris (pH 7.4), 0.015 M NaCl and 0.01% PEG-8000. The final concentration of enzyme used was 3 nM thrombin. […] All assays were performed in 96-well microtiter plates at room temperature (RT). […] Inhibitor IC50 values were determined by adding test compound as ten point, three-fold serial dilutions in buffer solution, as known in the art. The plate was read at 10 minutes after substrate addition. The IC50 was calculated by plotting the percent (%) inhibition against compound concentration and fitting the data to a constrained four parameter sigmoidal curve, as known in the art.

For another test, the system named is malignant breast tumors. As to conditions: treated mice, cited from earlier work.

T1 sequence (P03952 391-638 limits assumed): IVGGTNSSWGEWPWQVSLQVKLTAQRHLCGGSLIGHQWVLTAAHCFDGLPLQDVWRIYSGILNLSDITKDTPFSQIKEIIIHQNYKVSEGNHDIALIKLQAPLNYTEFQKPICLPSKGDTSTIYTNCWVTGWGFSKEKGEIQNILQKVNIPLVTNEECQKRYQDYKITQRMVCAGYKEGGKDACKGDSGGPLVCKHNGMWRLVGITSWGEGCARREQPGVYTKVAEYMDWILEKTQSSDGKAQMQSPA
T1 sequence (P03952 20-390 partner limits assumed): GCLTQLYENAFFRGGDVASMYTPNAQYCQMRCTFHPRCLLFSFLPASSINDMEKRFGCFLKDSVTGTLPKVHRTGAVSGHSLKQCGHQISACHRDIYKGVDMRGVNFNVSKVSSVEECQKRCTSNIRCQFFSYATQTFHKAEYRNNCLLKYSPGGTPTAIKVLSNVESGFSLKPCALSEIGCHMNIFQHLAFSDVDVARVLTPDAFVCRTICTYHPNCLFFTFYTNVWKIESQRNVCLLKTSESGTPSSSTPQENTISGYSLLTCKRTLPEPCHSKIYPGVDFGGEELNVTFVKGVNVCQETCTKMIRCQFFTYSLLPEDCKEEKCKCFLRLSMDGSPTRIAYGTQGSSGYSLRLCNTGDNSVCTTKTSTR

Take `COCCn1ccc(-c2cc(NCc3ccc(Cl)s3)n(C(=O)C(C)(C)C)n2)cc1=O` [Entry 9, 4-(5-[(5-chlorothiophen-2-yl)methyl]amino-1-(2,2-dimethylpropanoyl)-1H-pyrazol-3-yl)-1-(2-methoxyethyl)-1,2-dihydropyridin-2-one]: the pIC50 is 5.00 to 6.00 at Human KLKB1 protein and over 7.00 against Human thrombin.
With `O=C(c1ccco1)n1nc(-c2cc(-c3cccnc3)[nH]c(=O)c2)cc1NCc1ccc(Cl)s1` [Entry 15, 4-(5-[(5-chlorothiophen-2-yl)methyl]amino-1-(furan-2-carbonyl)-1H-pyrazol-3-yl)-6-(pyridin-3-yl)-1,2-dihydropyridin-2-one], the pIC50 at Human KLKB1 protein was under 4.00; against Human thrombin it was 5.00 to 6.00.
For `CC(C)(C)C(=O)n1nc(-c2c[nH]c(=O)c(-c3ccccc3)c2)cc1NCc1ccc(Cl)s1` [Entry 35, 5-(5-[(5-chlorothiophen-2-yl)methyl]amino-1-(2,2-dimethylpropanoyl)-1H-pyrazol-3-yl)-3-phenyl-1,2-dihydropyridin-2-one], in that order: 4.00 to 5.00 and 5.00 to 6.00.
On to `CC(C)(C)C(=O)n1nc(-c2cc(Br)[nH]c(=O)c2)cc1NCc1ccc(Cl)s1` [Entry 48, 6-bromo-4-(5-[(5-chlorothiophen-2-yl)methyl]amino-1-(2,2-dimethylpropanoyl)-1H-pyrazol-3-yl)-1,2-dihydropyridin-2-one], for which the figures for the negative-log IC50 (pIC50) on Human KLKB1 protein and on Human thrombin were 4.00 to 5.00 and over 7.00, respectively.
For `CC(C)(C)C(=O)n1nc(-c2cc(Br)cn(CC(=O)N3CCOCC3)c2=O)cc1NCc1ccc(Cl)s1` [Entry 40, 5-bromo-3-(5-[(5-chlorothiophen-2-yl)methyl]amino-1-(2,2-dimethylpropanoyl)-1H-pyrazol-3-yl)-1-[2-(morpholin-4-yl)-2-oxoethyl]-1,2-dihydropyridin-2-one], in that order: 5.00 to 6.00 and over 7.00.
For `COc1ccccc1C(=O)n1nc(-c2cc(-c3cccnc3)c[nH]c2=O)cc1NCc1ccc(Cl)s1` [Entry 3, 3-(5-[(5-chlorothiophen-2-yl)methyl]amino-1-(2-methoxybenzoyl)-1H-pyrazol-3-yl)-5-(pyridin-3-yl)-1,2-dihydropyridin-2-one], in that order: 6.00 to 7.00 and 6.00 to 7.00.
On the same counts, the results for `O=C(c1ccoc1)n1nc(-c2ccn(Cc3cccnc3)c(=O)c2)cc1NCc1ccc(Cl)s1` [Entry 19, 4-(5-[(5-chlorothiophen-2-yl)methyl]amino-1-(furan-3-carbonyl)-1H-pyrazol-3-yl)-1-(pyridin-3-ylmethyl)-1,2-dihydropyridin-2-one] are over 7.00 and over 7.00.
For `CCCCCCOC(=O)N=C(N)c1ccc(NCc2nc3cc(C(=O)N(CCC(=O)OCC)c4ccccn4)ccc3n2C)cc1` [dabigatran etexilate], in the test with malignant breast tumors (at 4 weeks), the “reduction in tumor volume” value was 50%. The “reduced tumor cells in the blood and liver micrometastases” value with malignant breast tumors is 50-60%.
